Laboratory results from patent US8796428B2, “Erk1/2 posphorylation site specific antibody” (Julius-Maximilians-Universitaet Wuerzburg, priority 2008, dated 2014).

What was measured:
[1] = system: Gβγ interaction with Raf1 and Erk1/2; assay: Co-immunoprecipitation of Gβγ with Raf1 and Erk1/2 in neonatal rat cardiomyocytes; format: cell-based; settings: angiotensinII 100 nM 5 min, carbachol 300 μM 10 min, neuregulin 20 ng ml^−1 10 min
Protocol: (§1) The inventors prepared cell lysates and tissue lysates using lysis buffer (0.5% (v/v) NP-40, 150 mM NaCl, 25 mM Na4P2O7, 50 mM β-glycerol phosphate disodium salt, 2 mM EDTA, 2 mM EGTA, 25 mM Tris, pH 8.0, 10% (v/v) glycerol, 10 μg ml^−1 soybean trypsin inhibitor, 1 mM benzamidine, 1 mM PMSF, 50 mM NaF, 0.1 mM Na3VO4, 0.002% (w/v) NaN3) similarly as described (Lorenz et al., 2003). The inventors determined the interaction of Gβγ with endogenous Raf1, ERK1/2, HA-tagged Raf1 or HA-tagged Erk2 constructs by immunoprecipitation with the respective antibodies (as indicated in the figures). After immunoprecipitation, the inventors detected co-immunoprecipitated proteins in immunoblot analyses using the respective antibodies (as indicated in the figures). Before lysis, the inventors incubated adult or neonatal cardiomyocytes with or without agonist as indicated (angiotensinII, 100 nM, 5 min or 24 h; carbachol, 300 μM, 10 min or 36 h; neuregulin1-β1, 20 ng ml^−1, 10 min or 24 h; phenylephrine, 35 μM, 5 min or 48 h). HEK293-cells were cultured in the absence or presence of carbachol (100 μM, 6 min) or UK14304 (1 μM, 10 min) before lysis. […]

[2] = system: Erk1/2; assay: Immunoblot of Thr188-phosphorylation of Erk1/2 in cardiomyocytes; format: cell-based; settings: 20 ng ml^−1
Protocol: as §1, with “[…];” for “neuregulin1-β1, 20 ng ml^−1, 10 min or 24 h;”

[3] = system: Gαq/11; assay: Detection of tyrosine phosphorylated Gαq/11 in neonatal cardiomyocytes; format: cell-based, rat; settings: 20 ng ml^−1, 10 min
Protocol: (§2) The inventors assessed phosphorylation of Gαq/11 by immunoprecipitation of Gαq/11 from lysates of neonatal cardiomyocytes without or with neuregulin1-β1 treatment (20 ng ml^−1, 10 min) using Gαq/11-specific antibodies (sc-392 AC, Santa Cruz) followed by detection of phosphotyrosine and immunoprecipitated Gαq/11 by immunoblot analyses. The inventors prepared the lysates as described above.

[4] = system: Src-kinase; assay: Neuregulin-induced hypertrophic effects in neonatal cardiomyocytes with Src-kinase inhibitor; format: cell-based, rat
Protocol: as §2
The inventors measured protein synthesis rates in isolated cardiomyocytes by [^3H]isoleucine incorporation. The inventors seeded transfected cardiomyocytes on 24-well plates in MEM supplemented with bromodeoxyuridine (25 mg l^−1), cobalamin (2 mg l^−1), NaHCO3 (350 mg l^−1), penicillin (100 U ml^−1), streptomycin (100 μg ml^−1) and 5% (v/v) fetal calf serum. After 24 h, the inventors reduced the serum concentration to 1% for 1 day followed by fasting in serum-free medium for 24-48 h. Thereafter, the inventors labeled the cells with [^3H]isoleucine (1 μCi ml^−1) for 24-48 h in the absence or presence of 100 nM angiotensinII, 300 μM carbachol, 10 ng ml^−1 neuregulin1-β1 or 35 μM (R)-(−)-phenylephrine as indicated. The inventors measured radioactivity incorporated into the TCA (trichloroacetic acid)-precipitable material by scintillation counting.

[5] = system: Mek1/2; assay: Co-immunoprecipitation of HA-Raf1 with Gβ in HEK293 cells; format: cell-based; settings: PD98059 50 μM, CCH, 5 min
Protocol: as §1, with “[…] The inventors prepared ventricular tissue from mouse hearts derived from male 129SvEv (FIG. 1g,h), FVB/N wild-type (WT) or Erk2^T188-transgenic mice (1188T, T188D, T188S, T188A) (FVB/N background) without or after transverse aortic constriction (TAC, see Fig. legends for the duration of TAC) or carbachol-infusion. Control animals” for “HEK293-cells”, “strain-, age- and gender-matched.” for “cultured in the absence or presence of carbachol (100 μM, 6 min) or UK14304 (1 μM, 10 min) before lysis.”

[6] = system: Mek; assay: Determination of total inositol phosphates in HEK293-cells; format: cell-based; settings: carbachol 50 μM, 15 min
Protocol: For determination of total inositol phosphates, the inventors transfected HEK293-cells with the indicated Erk2-constructs. After labeling of the cells with myo-[2-^3H]-inositol (1 mCi ml^−1) in inositol-free DMEM for 24 h, the inventors incubated the cells in incubation buffer (137 mM NaCl, 5 mM KCl, 10 mM LiCl, 1 mM CaCl2, 1 mM MgCl2, 10 mM HEPES, […]) for 15 min. The inventors extracted the inositol phosphates by addition of HClO4 (20%) before neutralizing the extract with KOH (1 M), removing the precipitates by centrifugation and applying the supernatants to anion exchange columns (DowexAG1×8, Biorad). The inventors then eluted total inositol phosphates by HCl (1 M) and measured the incorporated radioactivity by scintillation counting.

**Q.** What does the source list for neuregulin1-β1?
**A.** co-immunoprecipitation of Gβγ with both Raf1 and Erk1/2 [1]: permitted; Thr188-phosphorylation of Erk1/2 [2]: induced; phosphorylation of Gαq/11 at Tyr356 [3]: triggered

**Q.** `CC(C)(C)n1nc(-c2ccc(Cl)cc2)c2c(N)ncnc21` [PP2] was tested. Which “effect on neuregulin-induced effects (Gβγ co-immunoprecipitation, Gαq/11 phosphorylation, protein synthesis)” value [4] did it give?
**A.** blocked

**Q.** Which “carbachol-stimulated interaction of HA-Raf1 with Gβ” value [5] does the source give for `COc1cccc(-c2cc(=O)c3ccccc3o2)c1N` [PD98059] here?
**A.** suppressed

**Q.** What about the “carbachol-stimulated inositol phosphate signaling compared to control cells” value [6] of the same compound?
**A.** enhanced

**Q.** Which “co-immunoprecipitation of Gβγ with both Raf1 and Erk1/2” value [1] does the source give for “angiotensinII (DRVYIHPF; Angiotensin-2; UniProt P01019 25-32, looked up) [triggers hypertrophy via Gq-coupled AT1-receptors]” here?
**A.** markedly enhanced
